What was measured:
foxtail, giant [1] = experiment: Test C preemergence; assay type: in vivo, Setaria faberi
Procedure, shortened: (§1)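 Soil-applied (pre) and foliar (post, 1–2 leaf, 2–10 cm) sprays; surfactant-containing non-phytotoxic solvent vehicle; loam/sand substrate. Readout: visual % control at 10 d, greenhouse, versus untreated.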

rice = experiment: Test D flooded paddy test; assay type: in vivo, Oryza sativa; conditions: 250 g ai/ha, applied to paddy water, visual rating after 13 to 14 days, scale 0 to 100 (0 no effect, 100 complete control)
Procedure, shortened: (§2)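 Rating scale 0–100 (0 no effect, 100 complete control), visual, versus controls. Readout at 13–14 days after in-water application to 2-leaf plants in pots flooded 3 cm deep.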

barnyardgrass [2] = experiment: Test D flooded paddy test; assay type: in vivo, Echinochloa crus-galli; conditions: 250 g ai/ha, applied to paddy water, visual rating after 13 to 14 days, scale 0 to 100 (0 no effect, 100 complete control)
Procedure, shortened: as §2

kochia [3] = experiment: Test C preemergence; assay type: in vivo, Bassia scoparia
Procedure, shortened: as §1

ducksalad = experiment: Test D flooded paddy test; assay type: in vivo, Heteranthera limosa; conditions: 250 g ai/ha, applied to paddy water, visual rating after 13 to 14 days, scale 0 to 100 (0 no effect, 100 complete control)
Procedure, shortened: as §2

pigweed, palmer [4] = experiment: Test C preemergence; assay type: in vivo, Amaranthus palmeri
Procedure, shortened: as §1

wheat [5] = experiment: Test C postemergence; assay type: in vivo, Triticum aestivum; conditions: 10 days, 0 to 100 scale (0 no effect, 100 complete control)
Procedure, shortened: as §1

blackgrass [6] = experiment: Test C preemergence; assay type: in vivo, Alopecurus myosuroides
Procedure, shortened: as §1

corn [7] = experiment: Test C preemergence; assay type: in vivo, Zea mays
Procedure, shortened: as §1

blackgrass [8] = experiment: Test C postemergence; assay type: in vivo, Alopecurus myosuroides; conditions: 10 days, 0 to 100 scale (0 no effect, 100 complete control)
Procedure, shortened: as §1

ryegrass, Italian [9] = experiment: Test C preemergence; assay type: in vivo, Lolium multiflorum
Procedure, shortened: as §1

oat, wild [10] = experiment: Test C preemergence; assay type: in vivo, Avena fatua
Procedure, shortened: as §1

horseweed = experiment: Test C postemergence; assay type: in vivo, Erigeron canadensis; conditions: 10 days, 0 to 100 scale (0 no effect, 100 complete control)
Procedure, shortened: as §1

kochia [11] = experiment: Test C postemergence; assay type: in vivo, Bassia scoparia; conditions: 10 days, 0 to 100 scale (0 no effect, 100 complete control)
Procedure, shortened: as §1

barnyardgrass [12] = experiment: Test C postemergence; assay type: in vivo, Echinochloa crusgalli; conditions: 10 days, 0 to 100 scale (0 no effect, 100 complete control)
Procedure, shortened: as §1

ragweed [13] = experiment: Test C postemergence; assay type: in vivo, Ambrosia artemisiifolia; conditions: 10 days, 0 to 100 scale (0 no effect, 100 complete control)
Procedure, shortened: as §1

pigweed, palmer [14] = experiment: Test C postemergence; assay type: in vivo, Amaranthus palmeri; conditions: 10 days, 0 to 100 scale (0 no effect, 100 complete control)
Procedure, shortened: as §1

wheat [15] = experiment: Test C preemergence; assay type: in vivo, Triticum aestivum
Procedure, shortened: as §1

soybean [16] = experiment: Test C preemergence; assay type: in vivo, Glycine max
Procedure, shortened: as §1

ragweed [17] = experiment: Test C preemergence; assay type: in vivo, Ambrosia artemisiifolia
Procedure, shortened: as §1

sedge, umbrella = experiment: Test D flooded paddy test; assay type: in vivo, Cyperus difformis; conditions: 250 g ai/ha, applied to paddy water, visual rating after 13 to 14 days, scale 0 to 100 (0 no effect, 100 complete control)
Procedure, shortened: as §2

ryegrass, Italian [18] = experiment: Test C postemergence; assay type: in vivo, Lolium multiflorum; conditions: 10 days, 0 to 100 scale (0 no effect, 100 complete control)
Procedure, shortened: as §1

galium = experiment: Test C postemergence; assay type: in vivo, Galium aparine; conditions: 10 days, 0 to 100 scale (0 no effect, 100 complete control)
Procedure, shortened: as §1

oat, wild [19] = experiment: Test C postemergence; assay type: in vivo, Avena fatua; conditions: 10 days, 0 to 100 scale (0 no effect, 100 complete control)
Procedure, shortened: as §1

foxtail, giant [20] = experiment: Test C postemergence; assay type: in vivo, Setaria faberi; conditions: 10 days, 0 to 100 scale (0 no effect, 100 complete control)
Procedure, shortened: as §1

corn [21] = experiment: Test C postemergence; assay type: in vivo, Zea mays; conditions: 10 days, 0 to 100 scale (0 no effect, 100 complete control)
Procedure, shortened: as §1

barnyardgrass [22] = experiment: Test C preemergence; assay type: in vivo, Echinochloa crusgalli
Procedure, shortened: as §1

soybean [23] = experiment: Test C postemergence; assay type: in vivo, Glycine max; conditions: 10 days, 0 to 100 scale (0 no effect, 100 complete control)
Procedure, shortened: as §1

[24] = 500 g ai/ha, preemergence, 0 to 100 scale (0 no effect, 100 complete control)
[25] = Preemergence, 125 g ai/ha, 0 to 100 scale, 0 no effect, 100 complete control

**Q.** Which results are given for `CCc1ncn(-c2cc(C(=O)N3CC(C(F)(F)F)Oc4c(Cl)cccc43)ccn2)n1` (racemic) [Compound 334]?
**A.** Foxtail, Giant plant response rating (foxtail, giant [1]; [24]): 100; Plant response rating, Foxtail, Giant (foxtail, giant [1]; [25]): 90; Plant response rating, Rice (Flood) (rice): 0; Plant response rating, Barnyardgrass (Flood) (barnyardgrass [2]): 10; Kochia plant response rating (kochia [3]; [24]): 80; Plant response rating, Kochia (kochia [3]; [25]): 40; Plant response rating, Ducksalad (Flood) (ducksalad): 30; Pigweed, Palmer plant response rating (pigweed, palmer [4]; [24]): 100; Plant response rating, Pigweed, Palmer (pigweed, palmer [4]; [25]): 90; Plant response rating, Wheat (wheat [5]; 500 g ai/ha, postemergence): 50; Plant response rating, Wheat (wheat [5]; Postemergence, 125 g ai/ha): 20; Blackgrass plant response rating (blackgrass [6]; [24]): 90; Plant response rating, Blackgrass (blackgrass [6]; [25]): 80; Corn plant response rating (corn [7]; [24]): 50; Plant response rating, Corn (corn [7]; [25]): 0; Plant response rating, Blackgrass (blackgrass [8]; 500 g ai/ha, postemergence): 80; Plant response rating, Blackgrass (blackgrass [8]; Postemergence, 125 g ai/ha): 40; Ryegrass, Italian plant response rating (ryegrass, Italian [9]; [24]): 90; Plant response rating, Ryegrass, Italian (ryegrass, Italian [9]; [25]): 70; Oat, Wild plant response rating (oat, wild [10]; [24]): 30; Plant response rating, Oat, Wild (oat, wild [10]; [25]): 0; Plant response rating, Horseweed (horseweed; 500 g ai/ha, postemergence): 40; Plant response rating, Horseweed (horseweed; Postemergence, 125 g ai/ha): 0; Plant response rating, Kochia (kochia [11]; 500 g ai/ha, postemergence): 80; Plant response rating, Kochia (kochia [11]; Postemergence, 125 g ai/ha): 80; Plant response rating, Barnyardgrass (barnyardgrass [12]; 500 g ai/ha, postemergence): 90; Plant response rating, Barnyardgrass (barnyardgrass [12]; Postemergence, 125 g ai/ha): 20; Plant response rating, Ragweed (ragweed [13]; 500 g ai/ha, postemergence): 60; Plant response rating, Ragweed (ragweed [13]; Postemergence, 125 g ai/ha): 0; Plant response rating, Pigweed, Palmer (pigweed, palmer [14]; 500 g ai/ha, postemergence): 50; Plant response rating, Pigweed, Palmer (pigweed, palmer [14]; Postemergence, 125 g ai/ha): 30; Wheat plant response rating (wheat [15]; [24]): 20; Plant response rating, Wheat (wheat [15]; [25]): 0; Soybean plant response rating (soybean [16]; [24]): 60; Plant response rating, Soybean (soybean [16]; [25]): 0; Ragweed plant response rating (ragweed [17]; [24]): 30; Plant response rating, Ragweed (ragweed [17]; [25]): 0; Plant response rating, Sedge, Umbrella (Flood) (sedge, umbrella): 70; Plant response rating, Ryegrass, Italian (ryegrass, Italian [18]; 500 g ai/ha, postemergence): 70; Plant response rating, Ryegrass, Italian (ryegrass, Italian [18]; Postemergence, 125 g ai/ha): 50; Plant response rating, Galium (galium; 500 g ai/ha, postemergence): 100; Plant response rating, Galium (galium; Postemergence, 125 g ai/ha): 100; Plant response rating, Oat, Wild (oat, wild [19]; 500 g ai/ha, postemergence): 40; Plant response rating, Oat, Wild (oat, wild [19]; Postemergence, 125 g ai/ha): 10; Plant response rating, Foxtail, Giant (foxtail, giant [20]; 500 g ai/ha, postemergence): 90; Plant response rating, Foxtail, Giant (foxtail, giant [20]; Postemergence, 125 g ai/ha): 70; Plant response rating, Corn (corn [21]; 500 g ai/ha, postemergence): 90; Plant response rating, Corn (corn [21]; Postemergence, 125 g ai/ha): 40; Barnyardgrass plant response rating (barnyardgrass [22]; [24]): 100; Plant response rating, Barnyardgrass (barnyardgrass [22]; [25]): 60; Plant response rating, Soybean (soybean [23]; 500 g ai/ha, postemergence): 100; Plant response rating, Soybean (soybean [23]; Postemergence, 125 g ai/ha): 100

From patent publication US20260262643A1, “HERBICIDAL BENZOXAZINES” (FMC CORPORATION, priority 2022, published 2026)
